Where two headings read alike, the source gives them in different places.
Molecular target: CB1R (Homo sapiens, UniProt P21554)
Experiment: cell-based
Assay type: binding

Sequence of CB1R (P21554 whole entry): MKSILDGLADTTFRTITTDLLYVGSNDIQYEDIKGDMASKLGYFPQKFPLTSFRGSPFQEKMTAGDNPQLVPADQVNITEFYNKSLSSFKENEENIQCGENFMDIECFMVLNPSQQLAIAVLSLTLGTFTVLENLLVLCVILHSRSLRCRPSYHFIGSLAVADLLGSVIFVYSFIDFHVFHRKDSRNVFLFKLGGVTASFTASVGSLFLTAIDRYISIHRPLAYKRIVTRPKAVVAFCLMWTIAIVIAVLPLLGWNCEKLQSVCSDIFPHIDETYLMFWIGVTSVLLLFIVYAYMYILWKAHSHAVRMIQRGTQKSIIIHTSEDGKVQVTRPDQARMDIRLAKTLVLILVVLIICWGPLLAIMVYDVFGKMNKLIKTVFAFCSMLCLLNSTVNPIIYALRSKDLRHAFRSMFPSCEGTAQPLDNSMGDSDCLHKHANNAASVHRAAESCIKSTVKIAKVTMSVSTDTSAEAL

Row | Molecule | Ki (read-out: Ki (nM), binding affinity for CB1R, competition with 3 nM [3H]-SR141716A, 6 h at 4°C, Ki=IC50/(1+[D]/Kd)) [nM] | Ki [nM]
1 | AM-1248 [Compound 10] | 104 | –
2 | N#Cc1c(Oc2cccc(OS(=O)(=O)CCCC(F)(F)F)c2)cccc1C(F)(F)F [Compound 29, 3-[2-cyano-3-(trifluoromethyl)phenoxy]phenyl-4,4,4-trifluoro-1-butanesulfonate] | – | 18.1
